# Test results: patent publication US20070140979A1, “Method for accelerating the rate of mucociliary clearance” (BAYER AKTIENGESELLSCHAFT, priority 1998, published 2007)
# Read-outs that look alike come from different tables or passages of the source.
# B1: Bikunin: Bikunin (SEQ ID NO: 52), two Kunitz domain human homologue of bovine aprotinin, used in airway and HBE studies (protein, listed as Homo sapiens)
# chain: ADRERSIHDFCLVSKVVGRCRASMPRWWYNVTDGSCQLFVYGGCDGNSNNYLTKEECLKKCATVTENATGDLATSRNAADSSVPSAPRRQDSEDHSSDMFNYEEYCTANAVTGPCRASFPRWYFDVERNSCNNFIYGGCRGNKNSYRSEEACMLRCFRQQENPPLPLGSK
# B2: Recombinant Bikunin: fragment of placental bikunin containing both Kunitz domains (1-170), expressed in baculovirus/Sf9 cells (protein)
# chain: B1 chain
# Key:
# [1] = tested on: human bronchial epithelial cell (HBE); assay: Short circuit current (Isc) of cultured human bronchial epithelial cells in Ussing chambers; format: cell-based; details: for Sodium current: 70 nM
# Description: Tertiary HBE cell monolayers grown to confluence were mounted in modified Ussing chambers, immersed in Krebs buffer (KBR) solution and bubbled with 95% 02/5% C02 warmed to 37 C.
# Cells were left to equilibrate for 20 minutes before calibrating for background noise and fluid resistance. Transepithelial potential difference was then clamped to 0 mV using a WPI EVC 4000 voltage clamp. Ag/AgCl electrodes were used to monitor Isc. […] Once a response to amiloride was seen, it was washed out with KBR solution. […] 90 minutes following agent treatment, amiloride (10 uM) was added. Once the current was stable forskolin (10 uM in PBS) and then bumetanide (100 uM in PBS) was added.
# Cells were left to equilibrate for 20 minutes before calibrating for background noise and fluid resistance. Transepithelial potential difference was then clamped to 0 mV using a WPI EVC 4000 voltage clamp. Ag/AgCl electrodes were used to monitor Isc. […] Once a response to amiloride was seen, it was washed out with KBR solution. […] 90 minutes following agent treatment, amiloride (10 uM) was added.
# [2] = tested on: allergic sheep; details: cited from earlier work
# [3] = tested on: diseased patients; details: inhalation; Robinson et al 1997, App et al 1990; cited from earlier work
# [4] = tested on: guinea pig trachea; assay: Tracheal mucus velocity (TMV) in the guinea-pig; format: in vivo; details: 10 mM x 20 mins aerosol, 15 minutes after aerosol
# Description: […] […] The procedure used in this Example is described in Newton et al. in “Cila, Mucus and Mucociliary Interactions,” Ed., Baum, G. L. et al., Marcel Dekker, New York, 1998; Newton et al., Ped. Pulm. S17, Abs. 364, 998).
# A Bikunin formulation (50 ug/mL Bikunin (SEQ ID NO: 52) was prepared in HBBS containing 137 mM NaCl, 3 mM KC1, 3 mM KH2PO4, 8 mM Na2HPO4, 0.2% Tween-80, pH 7.1). The formulation was sterile filtered and endotoxin tested prior to use in this example. HBSS was used as a control solution. Hypnorm® (Fentanyl citrate 0.315 mg/mL and Fluanisone 10 mg/mL) was obtained from Janssen Animal Health and Hypnovel® (Midazolam 5 mg/mL) was obtained from Roche. Male Dunkin-Hartley guinea pigs (550-750 g) were supplied by David Hall, UK. Thermistor probes were obtained from Kane-May Ltd, UK. […]
# TMV was monitored using a lead collimated miniature Beta particle detector probe arranged to detect the radioactivity emitted from an injected aliquot of ^32P-labelled Saccharomyces cerevisiae as it was transported on the tracheal mucociliary layer of an anaesthetized guinea pig (Newton and Hall 1998) FIG. 16(a) illustrates the arrangement of the syringe and beta probe. FIG. 16(b) illustrates the counts detected by the probe as the ^32P-labelled S.cerevisiae is transported along the tracheal mucociliary layer. […]
# […] TMV was monitored immediately and every 15 minutes for 30 minutes. […]
# [5] = tested on: Xenopus kidney epithelial cells (A6 cells); details: exposure of the apical membrane, Vallet et al 1997, Chraibi et al 1998, cited from earlier work
# [6] = Isoelectric point by isoelectric focusing; format: physicochemical; details: Ampholine PAGplate pH 3.5 to 9.5, refolded purified protein
# Description: After staining, the migration distance from the cathodic edge of the gel to the different protein bands was measured. The pI of each unknown was determined by using a standard curve generated by a plot of the migration distance of standards versus the corresponding pI's. […] (Tenstad et al., 1994, Acta Physiol. Scand. 152:33-50).
# [7] = target: T1, human plasma kallikrein (Homo sapiens, UniProt P03952); assay: Inhibition of human plasma kallikrein, Ki; format: biochemical; details: for Potency as inhibitor of plasma kallikrein compared with aprotinin (Trasylol), in words: in vitro
# T1 construct: purchased Sigma (St. Louis, Mo.)
# Description: Proteases. Bovine trypsin, human plasmin, and bovine pancreatic kallikrein quantitation was carried out by active site titration using p-nitrophenyl p′-guanidinobenzoate HCl as previousl) described (Chase, T., and Shaw, E., (1970) Methods Enzmol. 19, 20-27). […] Human tissue kallikrein (Bayer, Germany) quantification was carried out by active site titration using p′nitrophenyl p′-guanidinobenzoate HCl as previously described (Chase, T., and Shaw, E., (1970) Methods Enzmol. 19, 20-27).
# After 5 min. at 37° C., 15 μl of 2 mM GPK-AMC was added and the change in fluorescence (as above) was monitored. […] After 5 min. incubation at 37° C., 25 μl of 20 mM GPK-AMC was added and the change in fluorescence monitored. […] After 5 min. at 37° C. 15 μl of 20 mM PFR-AMC was added and the change in fluorescence monitored.
# [8] = tested on: human bronchial epithelial cell (HBE); details: 1.5 μg.ml−1 (70 nM), normal HBE cells; McAulay et al 1998; cited from earlier work
# T1 sequence (P03952 391-638 limits assumed): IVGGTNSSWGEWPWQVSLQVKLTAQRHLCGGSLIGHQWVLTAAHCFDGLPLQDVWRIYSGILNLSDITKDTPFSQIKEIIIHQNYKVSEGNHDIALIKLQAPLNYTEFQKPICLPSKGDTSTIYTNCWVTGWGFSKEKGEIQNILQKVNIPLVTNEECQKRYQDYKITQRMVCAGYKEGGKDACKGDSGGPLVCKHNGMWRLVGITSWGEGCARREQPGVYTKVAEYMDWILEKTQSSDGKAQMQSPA
# T1 sequence (P03952 20-390 partner limits assumed): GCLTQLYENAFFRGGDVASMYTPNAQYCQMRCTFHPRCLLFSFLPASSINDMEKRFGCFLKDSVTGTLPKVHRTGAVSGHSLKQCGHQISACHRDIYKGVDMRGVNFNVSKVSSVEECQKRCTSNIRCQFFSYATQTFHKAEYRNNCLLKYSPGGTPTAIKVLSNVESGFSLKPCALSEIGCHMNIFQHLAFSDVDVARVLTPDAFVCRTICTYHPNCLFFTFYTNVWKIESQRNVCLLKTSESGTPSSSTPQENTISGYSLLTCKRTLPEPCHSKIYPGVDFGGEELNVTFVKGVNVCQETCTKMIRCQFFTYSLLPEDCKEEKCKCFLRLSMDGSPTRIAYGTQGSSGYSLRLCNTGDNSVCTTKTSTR
molecule,measurement,setting,value
α1-PI: serpin-family serine protease inhibitor alpha(1)-protease inhibitor,Effect on Na+ Isc,"[1]; 50 μg.ml−1, normal HBE cells, further study",without a significant effect
same,Antigen-induced reduction in TMV,"[2]; 10 mg, 30 min before or 1 h after antigen challenge, 6 h after challenge",attenuated
same,Baseline TMV,"[2]; administered on its own (no antigen challenge), over a 6 h period",no effect
same,Antigen-induced fall in TMV,"[2]; given 6 h after antigen challenge, at 24 h after challenge",significant reversal
Des Pro2-Ser10-Arg15-Asp24-Thr26-Glu31-Asn41-Glu53-Aprotinin [Aprotinin double mutein],Sodium short circuit current,"[1]; 0.5 to 5 ug/mL, 90 minute period",dose dependently inhibited
same,Sodium short circuit current,"[1]; 0.5 to 5 ug/mL, 90 minute period, listed as aprotinin double mutein",decrease
N=C(N)NC(=O)c1nc(Cl)c(N)nc1N [amiloride],MCC in diseased patients,[3],significantly increase
same,TMV after aerosol,[4],statistically significant increase
Aprotinin,Sodium short circuit current,"[1]; 5 ug/mL, FIG. 20",decrease
same,Transepithelial Na+ transport,[5],reduce
same,Transepithelial Na+ transport,[5]; listed as aprotinin,reduced
CC[C@H](C)[C@@H]1NC(=O)[C@H](Cc2ccccc2)NC(=O)[C@H](CC(N)=O)NC(=O)[C@H](CC(N)=O)NC(=O)[C@@H]2CSSC[C@@H]3NC(=O)[C@H](C)NC(=O)[C@H](CCC(=O)O)NC(=O)[C@H](CCC(=O)O)NC(=O)[C@H](CO)NC(=O)[C@H](CCCNC(=N)N)NC(=O)[C@H](Cc4ccc(O)cc4)NC(=O)[C@H](CO)NC(=O)[C@H](CC(N)=O)NC(=O)[C@H](CCCCN)NC(=O)[C@H](CC(N)=O)NC(=O)CNC(=O)[C@H](CCCNC(=N)N)NC(=O)[C@H](CSSC[C@H](NC(=O)[C@@H]4CCCN4C(=O)CNC(=O)[C@H]([C@@H](C)O)NC(=O)[C@H](C(C)C)NC(=O)[C@H](C)NC(=O)[C@H](CC(N)=O)NC(=O)[C@H](C)NC(=O)[C@H]([C@@H](C)O)NC(=O)[C@@H](NC(=O)[C@H](Cc4ccc(O)cc4)NC(=O)[C@H](CCC(=O)O)NC(=O)[C@H](CCC(=O)O)NC(=O)[C@@H](N)Cc4ccc(O)cc4)CSSC[C@@H](C(=O)N[C@@H](Cc4ccccc4)C(=O)N[C@@H](CCCNC(=N)N)C(=O)N[C@@H](CCC(N)=O)C(=O)O)NC(=O)[C@H](CCCNC(=N)N)NC(=O)[C@H](CC(C)C)NC(=O)[C@H](CCSC)NC3=O)C(=O)N[C@@H](CCCNC(=N)N)C(=O)N[C@@H](C)C(=O)N[C@@H](CO)C(=O)N[C@@H](Cc3ccccc3)C(=O)N3CCC[C@H]3C(=O)N[C@@H](CCCNC(=N)N)C(=O)N[C@@H](Cc3c[nH]c4ccccc34)C(=O)N[C@@H](Cc3ccc(O)cc3)C(=O)N[C@@H](Cc3ccccc3)C(=O)N[C@@H](CC(=O)O)C(=O)N[C@@H](C(C)C)C(=O)N[C@@H](CCC(=O)O)C(=O)N[C@@H](CCCNC(=N)N)C(=O)N[C@@H](CC(N)=O)C(=O)N[C@@H](CO)C(=O)N2)NC(=O)CNC(=O)CNC(=O)[C@H](Cc2ccc(O)cc2)NC1=O [Bikunin (102-159)],pI,[6],8.3
same,Ki,"[7]; Kallikrein ([…] nM), Table 4B",7 nM
same,"Potency as inhibitor of plasma kallikrein compared with aprotinin (Trasylol), in words",[7],significantly more potent
B1,Inhibition of Na+ Isc,[8],54%
same,Sodium current,[1]; 90 minute period,decreases
same,Sodium current,"[1]; 90 minute period, listed as Bukinin",inhibited
same,Inhibition of Na+ Isc,"[1]; 5 μg.ml−1, normal HBE cells, further study",84%
same,Sodium short circuit current,"[1]; 5 ug/mL, FIG. 20",decrease
B2,"Potency as inhibitor of plasma kallikrein compared with aprotinin (Trasylol), in words",[7],more potent
same,"Potency as inhibitor of plasma kallikrein compared with aprotinin (Trasylol), in words",[7]; listed as bikunin(1-170),significantly more potent
